One assay addresses T1, ACX2 (Arabidopsis thaliana, UniProt O65201).
T1 construct: pET28a (plasmid as in Yuan et al. 2017), purified from E. coli
T1 sequence (O65201 50-692): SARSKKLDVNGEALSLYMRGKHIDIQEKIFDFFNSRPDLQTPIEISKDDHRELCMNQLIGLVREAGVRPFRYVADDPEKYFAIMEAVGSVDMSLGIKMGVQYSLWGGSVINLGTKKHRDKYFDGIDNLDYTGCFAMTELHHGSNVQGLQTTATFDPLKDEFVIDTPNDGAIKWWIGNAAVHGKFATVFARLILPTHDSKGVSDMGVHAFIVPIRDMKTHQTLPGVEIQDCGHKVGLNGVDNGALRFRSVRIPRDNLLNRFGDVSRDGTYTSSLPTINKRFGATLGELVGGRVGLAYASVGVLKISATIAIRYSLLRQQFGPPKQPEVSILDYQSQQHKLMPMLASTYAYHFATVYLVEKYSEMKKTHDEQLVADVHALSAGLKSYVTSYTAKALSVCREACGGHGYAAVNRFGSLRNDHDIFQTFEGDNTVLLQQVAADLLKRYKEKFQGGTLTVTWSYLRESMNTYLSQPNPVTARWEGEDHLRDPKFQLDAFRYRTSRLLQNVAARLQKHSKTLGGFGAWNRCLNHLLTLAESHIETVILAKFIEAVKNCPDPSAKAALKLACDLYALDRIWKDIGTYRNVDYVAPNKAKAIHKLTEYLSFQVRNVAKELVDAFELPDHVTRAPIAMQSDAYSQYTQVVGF
Briefly: MALDI-TOF/TOF MS of substrate and product. The format is biochemical. The following applies: no CAT2; 50 mM KPO4 pH 7.6, 50 µM FAD, 100 µg/ml BSA, 25 °C, 30 min; product Δ2-OPC4-CoA.

A further assay deals with T2, ACX3 (Arabidopsis thaliana, UniProt P0CZ23).
T2 construct: pET28a (plasmid as in Yuan et al. 2017), purified from E. coli
T2 sequence (P0CZ23 35-675): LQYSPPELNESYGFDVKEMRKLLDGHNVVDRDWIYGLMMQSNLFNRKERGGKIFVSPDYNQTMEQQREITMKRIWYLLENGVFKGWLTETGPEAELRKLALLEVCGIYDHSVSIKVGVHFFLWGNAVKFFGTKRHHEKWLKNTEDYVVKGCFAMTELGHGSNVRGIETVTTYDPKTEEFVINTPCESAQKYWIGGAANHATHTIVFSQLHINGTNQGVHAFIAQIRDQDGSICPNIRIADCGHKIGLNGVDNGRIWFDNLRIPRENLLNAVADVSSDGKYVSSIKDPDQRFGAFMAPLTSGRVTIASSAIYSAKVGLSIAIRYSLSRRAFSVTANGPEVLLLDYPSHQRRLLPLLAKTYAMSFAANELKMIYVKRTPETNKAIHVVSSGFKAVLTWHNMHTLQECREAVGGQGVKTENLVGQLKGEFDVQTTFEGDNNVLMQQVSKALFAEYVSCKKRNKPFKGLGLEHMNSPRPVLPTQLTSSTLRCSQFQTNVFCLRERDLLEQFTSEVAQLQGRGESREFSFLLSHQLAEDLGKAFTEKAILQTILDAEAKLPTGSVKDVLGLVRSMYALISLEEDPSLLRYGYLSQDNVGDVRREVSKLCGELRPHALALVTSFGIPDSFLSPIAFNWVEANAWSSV
The assay can be described thus: MALDI-TOF/TOF MS of substrate and product. The class given is biochemical. The following applies: no CAT2; 50 mM KPO4 pH 7.6, 50 µM FAD, 100 µg/ml BSA, 25 °C, 30 min; product Δ2-OPC4-CoA.

`CC/C=C\C[C@@H]1C(=O)CC[C@@H]1CCCC(=O)SCCNC(=O)CCNC(=O)[C@H](O)C(C)(C)COP(=O)(O)OP(=O)(O)OC[C@H]1O[C@@H](n2cnc3c(N)ncnc32)[C@H](O)[C@@H]1OP(=O)(O)O` [OPC4‐CoA]: the “MALDI-TOF/TOF MS of substrate and product” value was “The enzymatic activities of ACX2 and ACX3 were assessed with OPC4‐CoA as the substrate” at ACX2; “The enzymatic activities of ACX2 and ACX3 were assessed with OPC4‐CoA as the substrate” at ACX3.

For the origin of these results see article PMC8435237, “Overexpressing the N‐terminus of CATALASE2 enhances plant jasmonic acid biosynthesis and resistance to necrotrophic pathogen Botrytis cinerea B05.10” (Molecular Plant Pathology, 2021).
